Reference: the NIST ThermoML archive (doi:10.1016/j.tca.2015.12.007)
Several values for one entry are separate records, joined by “and”; a condition that tells them apart may be missing. Identical values can stand only once.

Columns and labels:
[1] = Crystal, Calculated from knudsen effusion weight loss
[2] = molar enthalpy of vaporization or sublimation; conditions: 298.15 K; Crystal; Static calorimetry

CC(C)C1C(=O)NC(=O)NC1=O [5-isopropylbarbituric acid]
[1]
Conditions	vapor or sublimation pressure
369.16 K	0.000115 kPa and 0.000107 kPa and 0.000106 kPa
371.12 K	0.000138 kPa and 0.000135 kPa
373.08 K	0.000167 kPa and 0.000169 kPa and 0.000166 kPa
375.16 K	0.000204 kPa and 0.000202 kPa and 0.000216 kPa
377.12 K	0.000254 kPa and 0.000251 kPa and 0.000257 kPa
379.09 K	0.000314 kPa and 0.000311 kPa and 0.000303 kPa
381.16 K	0.000371 kPa and 0.00037 kPa and 0.000389 kPa
383.11 K	0.000461 kPa and 0.000453 kPa and 0.000465 kPa
385.09 K	0.000559 kPa and 0.000555 kPa and 0.000554 kPa
387.15 K	0.000674 kPa and 0.000675 kPa and 0.000708 kPa
389.13 K	0.000839 kPa and 0.000843 kPa and 0.000844 kPa
391.11 K	0.000998 kPa and 0.001017 kPa and 0.001009 kPa

Conditions	molar enthalpy [kJ/mol]
[2]	125
